Legend:
[1] = system: Hep3B cells; assay: Hep3B cell proliferation (CellTiter-Glo, 72 hours); type: cell-based; details: read-out: Hep3B IC50
Protocol: 1. Test method: inoculating Hep3B cells (ATCC) in logarithmic growth phase at an appropriate density in a 96-well culture plate, with 100 μL per well. After overnight culture, different concentrations of compounds were added to stay for 72 hours, and menstruum control group (negative control) was set, and the incubation was performed under the condition of 5% CO2 at 37° C. Adding 10 mM compound stock solution to the cells, after the cells were incubated with the compounds for 72 hours, the effects of the compounds on cell proliferation were determined by CellTiter-Glo (Promega) method. 30 μL CTG reagent was added to each well and the resulting mixtures were placed in a 37° C. incubator for 2-4 hours. Then the plate was read by a full-wavelength microplate enzyme reader Envision at a […].
The inhibition rates (%) of the compounds on tumor cell growth were calculated by the following formula: inhibition rate (%)=(OD negative control well−OD administration well)/OD negative control well×100%. IC50 values were obtained by four parameters regression using Graphpad Prism 5 software.

[2] = system: EGFR, VEGFR, PDGFR, FGFR, RET, MET, Src, Lyn, Syk, MEK, CDK, RA, ROS; assay: Inhibitory activities on different kinases (selectivity); type: biochemical; details: versus different kinases
Protocol: The inhibitory activities of the compounds of the present disclosure on different kinases such as EGFR, VEGFR, PDGFR, FGFR, RET, MET, Src, Lyn, Syk, MEK, CDK, RA, ROS, etc., were also determined.

[3] = ADME tests: liver microsome metabolic stability and direct inhibition test; type: in vitro ADME; details: metabolic stability, direct inhibition test
Protocol: (1) Metabolic stability test: 150 μL system of liver microsome (final concentration 0.5 mg/mL) was used for metabolic stability incubation, the system contained NADPH (final concentration 1 mM), 1 μM test compound and positive control Midazolam or negative control Atenolol, then the reaction was terminated with Tinidazole-containing acetonitrile at 0 min, 5 min, 10 min and 30 min respectively, and the mixtures were vortexed for 10 minutes and centrifuged for 10 minutes at 15000 rmp, 50 μL of the supernatants were added into 96-well plate for injection. The metabolic stability of the compounds was calculated by measuring the relative reduction of the original drug.
(2) Direct inhibition test (DI test): Direct inhibition incubation was carried out with 100 μL system of human liver microsome (final concentration 0.2 mg/mL), the system containing NADPH (final concentration 1 mM), 10 μM compound, positive inhibitor cocktail (Ketoconazole 10 μM, Quinidine 10 μM, Sulfaphenazolum 100 μM, α-Naphthoflavone 10 μM, Tranylcypromine 1000 μM), negative control (BPS containing 0.1% DMSO) and mixed probe substrates (Midazolam 10 μM, Testosterone 100 μM, Dextromethorphan […], Diclofenac 20 μM, Phenacetin 100 μM, Mephenytoin 100 μM) was incubated for 20 minutes and then the reaction was terminated. The relative activity of enzymes was calculated by measuring the relative production of metabolites.

[4] = biological target: FGFR4 (Homo sapiens (Human), UniProt P22455); assay: Inhibitory activity on kinase FGFR4 (Caliper mobility shift); type: biochemical; details: read-out: FGFR4 IC50
Sequence of FGFR4 (P22455 22-802): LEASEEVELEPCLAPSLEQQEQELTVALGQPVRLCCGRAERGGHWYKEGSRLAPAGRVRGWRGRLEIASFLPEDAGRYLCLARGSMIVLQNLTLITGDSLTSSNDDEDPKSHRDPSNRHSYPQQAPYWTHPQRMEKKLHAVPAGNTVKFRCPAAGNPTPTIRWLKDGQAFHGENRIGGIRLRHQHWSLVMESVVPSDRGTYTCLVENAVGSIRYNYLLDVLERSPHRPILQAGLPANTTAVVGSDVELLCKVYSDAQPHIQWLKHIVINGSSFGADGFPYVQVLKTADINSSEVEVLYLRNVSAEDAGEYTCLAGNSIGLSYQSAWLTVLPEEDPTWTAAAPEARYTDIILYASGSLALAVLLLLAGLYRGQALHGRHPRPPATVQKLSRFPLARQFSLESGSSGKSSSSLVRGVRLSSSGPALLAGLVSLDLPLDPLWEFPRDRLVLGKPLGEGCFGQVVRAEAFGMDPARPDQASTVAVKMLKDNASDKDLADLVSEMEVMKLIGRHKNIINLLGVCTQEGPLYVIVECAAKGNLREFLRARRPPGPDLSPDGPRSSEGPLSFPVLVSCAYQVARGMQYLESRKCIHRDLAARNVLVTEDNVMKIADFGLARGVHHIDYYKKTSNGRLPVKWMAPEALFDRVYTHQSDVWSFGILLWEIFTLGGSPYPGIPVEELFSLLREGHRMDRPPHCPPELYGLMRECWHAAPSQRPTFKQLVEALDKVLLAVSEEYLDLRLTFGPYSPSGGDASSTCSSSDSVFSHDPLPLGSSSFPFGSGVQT
Protocol: (§1) (1). Preparation of 1×Kinase buffer; (2) Preparation of the gradient concentrations of the compounds: the concentration of the compounds to be tested started from 10 μM, which was 3-fold diluted to prepare 10 dilutions, and then tested in duplicated wells. The compounds were 100-fold serially diluted into 10 dilutions with different final concentrations in 96-well plates, each of which was further diluted with 1×Kinase buffer to prepare an intermediate dilution having a concentration of 5 times the final concentration; (3) adding 5 μL of each of the prepared compound solution into the compound wells of 384-well plates, and each concentration set single well; adding 5 μL of 5% DMSO into negative control wells and positive control wells respectively; (4) preparing a kinase solution having a concentration of 2.5 times the final concentration with 1×kinase buffer; (5) adding 10 μL of kinase solution at a concentration of 2.5 times the final concentration into the compound wells and the positive control wells respectively; and adding 10 μL of 1×Kinase buffer into the negative control wells; (6) centrifuging at 1000 rpm for 30 seconds, and incubating at room temperature for 10 minutes after shaking and mixing evenly; (7) preparing a mixed solution of ATP and Kinase substrate 22 having a concentration of 2.5 times the final concentration with 1×Kinase Buffer; (8) adding 10 μL of the mixed solution of ATP and substrate at a concentration of 2.5 times the final concentration to initiate the reaction; (9) Centrifuging the 384-well plates at 1000 rpm for 30 seconds, and incubating at 28° C. for corresponding time respectively after shaking and mixing; (10) adding 30 μL of stop detection solution to stop the kinase reaction, centrifuging at 1000 rpm for 30 seconds, and shaking and mixing the mixture evenly; (11) reading the conversion rate by Caliper Ezreader II. The dose-effect curve was fitted by the log (inhibitor) vs. response-variable slope of GraphPad Prism 5 with the log value of concentration as the X axis and the percentage inhibition rate as the Y axis, then the IC50 value of each compound on the enzyme activity was obtained.

[5] = Pharmacokinetics in rats or mice after intragastric and intravenous administration; type: in vivo, SD rats or BALB/c mice; details: iv 3 mg/kg, intragastric 10 mg/kg
Protocol: (3) LC/MS/MS method was used to measure the drug concentration in plasma at different time points after the embodiment compounds were administered to the rats or mice by intragastric administration and intravenous injection respectively, so as to study the pharmacokinetic behavior of the compounds of the present disclosure in rats or mice and evaluate the pharmacokinetic characteristics thereof. […]

[6] = biological target: FGFR1 (Homo sapiens (Human), UniProt P11362); assay: Inhibitory activity on kinase FGFR1 (Caliper mobility shift); type: biochemical; details: read-out: FGFR1 IC50
Sequence of FGFR1 (P11362 22-822): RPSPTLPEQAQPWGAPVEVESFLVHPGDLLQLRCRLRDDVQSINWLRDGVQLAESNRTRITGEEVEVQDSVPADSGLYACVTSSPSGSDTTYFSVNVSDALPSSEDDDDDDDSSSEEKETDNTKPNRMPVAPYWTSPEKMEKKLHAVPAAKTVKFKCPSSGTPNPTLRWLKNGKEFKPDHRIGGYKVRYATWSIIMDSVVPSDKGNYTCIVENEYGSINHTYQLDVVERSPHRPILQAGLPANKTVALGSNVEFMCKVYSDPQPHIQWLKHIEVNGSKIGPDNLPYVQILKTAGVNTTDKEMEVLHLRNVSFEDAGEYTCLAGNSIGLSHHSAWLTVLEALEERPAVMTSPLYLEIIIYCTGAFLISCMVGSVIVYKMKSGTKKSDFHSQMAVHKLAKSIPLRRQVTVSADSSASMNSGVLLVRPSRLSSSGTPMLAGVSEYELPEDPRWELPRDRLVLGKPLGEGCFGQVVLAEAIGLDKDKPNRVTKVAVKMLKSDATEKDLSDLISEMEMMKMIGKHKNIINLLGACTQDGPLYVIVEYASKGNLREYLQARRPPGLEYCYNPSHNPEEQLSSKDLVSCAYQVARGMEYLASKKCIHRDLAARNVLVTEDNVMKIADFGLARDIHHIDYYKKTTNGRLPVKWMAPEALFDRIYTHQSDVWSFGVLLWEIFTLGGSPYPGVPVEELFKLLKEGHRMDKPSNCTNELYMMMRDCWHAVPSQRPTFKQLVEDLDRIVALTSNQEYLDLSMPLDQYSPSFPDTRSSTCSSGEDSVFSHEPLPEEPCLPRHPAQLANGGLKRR
Protocol: as §1

[7] = system: various tumor cells (HuH-7, SNU-16, KG1, UM-UC-14, RT-112 etc.); assay: Proliferation inhibitory activity on various tumor cells (SRB or CCK8); type: cell-based; details: SRB or CCK8 method; read-out: proliferation inhibitory activities on various tumor cells
[8] = system: xenograft tumors; assay: Xenograft tumor growth in nude mice; type: in vivo; details: oral, daily for three weeks, lower dose (even less than 20 mg/kg)
Protocol: 1. The tumor tissue in vigorous growth period was cut into about 1.5 mm^3, and subcutaneously inoculated into the right armpit of nude mice under sterile condition. The diameter of the subcutaneous transplanted tumors in nude mice was measured with vernier caliper, and the animals were randomly divided into groups when the average volume of the tumor reached about 130 mm^3. The embodiment compounds (prepared to the desired concentration with water for injection containing 1% Tween 80 for later use) were orally administered at a predetermined dose every day for three weeks, while a same amount of menstruum was administered in the menstruum control group. During the whole experiment, the diameter of the xenograft tumor was measured twice a week and the weight of the mice was weighed at the same time. The tumor volume (TV) was calculated by the formula: TV=½×a×b^2, where a and b represent length and width respectively. According to the measured results, the relative tumor volume (RTV) was calculated by the formula: RTV=Vt/V0, where V0 was the tumor volume measured when the mice were divided into cages for administration (i.e., d0) and Vt was the tumor volume at each measurement. […]

With `C=CC(=O)Nc1ccc(-c2cn3c(n2)c(-c2c(Cl)c(OC)cc(OC)c2Cl)cc2cnc(NC)nc23)cc1` [Embodiment 17, N-(4-(6-(2,6-dichloro-3,5-phenyldimethoxyphenyl)-2-(methylamine)imidazo[1′,2′:1,6]pyrido[2,3-d]pyrimidin-8-yl)phenyl)acrylamide] the IC50 [1] was 20 to 200 nM, the kinase selectivity [2] was “greater than 100 times” and the ADME properties [3] was “better ADME properties”. The IC50 [4] was > 200 nM, the “absorption and metabolism properties in rats and mice” value [5] was “good absorption and metabolism properties in rats and mice” and the IC50 [6] was < 20 nM. For the same compound, the IC50 [7] was < 100 nM and the anti-tumor rate [8] was “more than 80%”.
